Reference: patent US20240207285A1 (Melt Pharmaceuticals, Inc., priority 2022, published 2024)

Experiments:
[1] = tested on: subjects undergoing cataract extraction with lens replacement (CELR); assay: Phase 2 subjects achieving procedural sedation (RSS 2 or 3 without rescue); format: in vivo, human; settings: Visit 2 (Day 1), Full Analysis Set
Experimental: A Phase 2 efficacy and safety study of the MELT-300 formulation was conducted at nine sites with over 300 enrolled subjects. MELT-300 is a sublingual, needle- and opioid-free formulation for procedural sedation during cataract surgery. […] MELT-300 utilizes fast-dissolving delivery technology (Zydis®, Catalent Inc.) to rapidly dissolve the tablet for absorption across the sublingual mucosa.
(§1) The Phase 2 study was factorial-designed, randomized, double-blind, placebo-controlled, and included parallel-cohorts. […] Primary efficacy endpoints included appropriate sedation during the cataract surgery and management of intraoperative pain during the surgery.
Achievement of procedural sedation was evaluated for each subject (see TABLE 19). Success for procedural sedation for this Phase 2 study was defined as achieving target sedation level (Ramsay Sedation Scale (RSS) scale level 2 or 3) at the start of surgery without the need for rescue sedation medication, and no need for intraoperative rescue sedation medication to maintain target sedation level.

[2] = tested on: subjects undergoing cataract extraction with lens replacement (CELR); assay: Phase 2 mean intraoperative analgesia by the numeric pain rating scale; format: in vivo, human
Experimental: An average of the available timepoints was also calculated.

[3] = tested on: subjects undergoing cataract extraction with lens replacement (CELR); assay: Phase 2 subject-rated worst pain during surgery by the numeric pain rating scale; format: in vivo, human; settings: carry forward
[4] = tested on: subjects undergoing cataract extraction with lens replacement (CELR); assay: Phase 2 subjects wanting study drug again for a second surgery (11-point Likert scale); format: in vivo, human
From the text: Post-operation, subjects were asked whether they would want the study drug again for a second surgery using an 11-point Likert scale of 0 (not likely at all) to 10 (extremely likely).

[5] = tested on: subjects undergoing cataract extraction with lens replacement (CELR); assay: Phase 2 treatment-emergent ocular adverse events (study eye, non-study eye, either eye); settings: for Eye disorders, % / General disorders and administration site conditions, % / Infections and infestations, % / Injury, poisoning and procedural complications, % / Investigations, %: system organ class
Experimental: as §1
The study eye (TABLE 31) non-study eye (TABLE 32), or either eye (TABLE 33) was assessed. TEAES were defined as events that started on or after the date of the study drug administration through the end of Visit 4 or early withdrawal. Subjects with one or more adverse event within a level of Medical Dictionary for Regulatory Activities (MedDRA) were counted only once in that level.

[6] = tested on: subjects undergoing cataract extraction with lens replacement (CELR); assay: Phase 2 subjects requiring rescue analgesic medication; format: in vivo, human; settings: Visit 2 (Day 1); Full Analysis Set
Experimental: (§2) The number of subjects achieving analgesia response (observed) in the full analysis set was determined. Success in analgesia response was defined as NPRS <4 at the available at the available four intraoperative timepoints and a failure otherwise (e.g., any interoperative pain rescue was assumed to be a failure. Results are provided in TABLE 24. The number of subjects completing the surgery is provided in TABLE 25, and the number of subjects completing the surgery without interruption is provided in TABLE 26. For this measure, subjects completing the surgery without interruption (other than rescue medication) due to pain or anxiety were considered successes. The number of subjects requiring rescue sedative medication and those requiring analgesic medication are provided in TABLES 27 and 28, respectively. For all TABLES 24-28, p-Values between pairs of treatments were calculated and are provided.

[7] = tested on: subjects undergoing cataract extraction with lens replacement (CELR); assay: Phase 2 subjects completing the surgery without interruption; format: in vivo, human; settings: Visit 2 (Day 1); Full Analysis Set
Experimental: as §2

[8] = tested on: subjects undergoing cataract extraction with lens replacement (CELR); assay: Phase 2 subjects achieving analgesia response (NPRS <4); format: in vivo, human; settings: Visit 2 (Day 1), observed
Experimental: as §2

[9] = tested on: subjects undergoing cataract extraction with lens replacement (CELR); assay: Phase 2 subjects completing the surgery; format: in vivo, human; settings: Visit 2 (Day 1); Full Analysis Set
Experimental: as §2

[10] = tested on: subjects undergoing cataract extraction with lens replacement (CELR); assay: Phase 2 subjects receiving opioid concomitant medication postoperatively; format: in vivo, human
[11] = tested on: subjects undergoing cataract extraction with lens replacement (CELR); assay: Phase 2 subjects requiring rescue sedative medication; format: in vivo, human; settings: Visit 2 (Day 1)
Experimental: as §2

[12] = Average of available timepoints, adjusted for site table, carry forward
[13] = Average of available timepoints, carry forward
[14] = Average of available timepoints, observed
[15] = Corneal incision, adjusted for site table, carry forward
[16] = Corneal incision, carry forward
[17] = Insertion of the phacoemulsion probe, adjusted for site table, carry forward
[18] = Insertion of the phacoemulsion probe, carry forward
[19] = Insertion of the phacoemulsion probe, observed
[20] = Insertion of the speculum, adjusted for site table, carry forward
[21] = Insertion of the speculum, carry forward
[22] = Insertion of the speculum, observed
[23] = Insertion of the synthetic replacement lens, adjusted for site table, carry forward
[24] = Insertion of the synthetic replacement lens, carry forward
[25] = Insertion of the synthetic replacement lens, observed
[26] = 11-point Likert scale 0 (not likely at all) to 10 (extremely likely)

For `CNC1(c2ccccc2Cl)CCCCC1=O` (stereo not drawn) [Ketamine 50 mg], the “Subjects achieving procedural sedation: No, %” value [1] was 36.7%, the “Subjects achieving procedural sedation: Yes, %” value ([1]; RSS 2 or 3 without rescue sedation) was 63.3% and the “Intraoperative NPRS, LS Mean” value ([2]; Average of available timepoints, adjusted for site (study center covariate), carry forward) was 1.89. For the same compound, the “Intraoperative NPRS, mean” value [2, 12] was 2.16, the “Intraoperative NPRS, median” value [2, 12] was 1.75 and the “Intraoperative NPRS, mean” value [2, 13] was 2.16. The “Intraoperative NPRS, median” value [2, 13] was 1.75, the “Intraoperative NPRS, LS Mean” value ([2]; Average of available timepoints, carry forward, repeated measures model) was 2.16 and the “Intraoperative NPRS, mean” value [2, 14] was 2.00. The “Intraoperative NPRS, median” value [2, 14] was 1.75, the “Intraoperative NPRS, LS Mean” value ([2]; Average of available timepoints, observed, repeated measures model) was 2.22 and the “Intraoperative NPRS, mean” value [2, 15] was 1.8. The “Intraoperative NPRS, median” value [2, 15] was 1.0, the “Intraoperative NPRS, mean” value [2, 16] was 1.8 and the “Intraoperative NPRS, median” value [2, 16] was 1.0. For the same compound, the “Intraoperative NPRS, mean” value ([2]; Corneal incision, observed) was 1.7, the “Intraoperative NPRS, median” value ([2]; Corneal incision, observed) was 1.0 and the “Intraoperative NPRS, mean” value [2, 17] was 2.5. The “Intraoperative NPRS, median” value [2, 17] was 2.0, the “Intraoperative NPRS, mean” value [2, 18] was 2.5 and the “Intraoperative NPRS, median” value [2, 18] was 2.0. For the same compound, the “Intraoperative NPRS, mean” value [2, 19] was 2.1, the “Intraoperative NPRS, median” value [2, 19] was 2.0 and the “Intraoperative NPRS, mean” value [2, 20] was 1.1. The “Intraoperative NPRS, median” value [2, 20] was 1.0, the “Intraoperative NPRS, mean” value [2, 21] was 1.1 and the “Intraoperative NPRS, median” value [2, 21] was 1.0. The “Intraoperative NPRS, mean” value [2, 22] was 1.1, the “Intraoperative NPRS, median” value [2, 22] was 1.0 and the “Intraoperative NPRS, mean” value [2, 23] was 3.3. The “Intraoperative NPRS, median” value [2, 23] was 3.0, the “Intraoperative NPRS, mean” value [2, 24] was 3.3 and the “Intraoperative NPRS, median” value [2, 24] was 3.0. For the same compound, the “Intraoperative NPRS, mean” value [2, 25] was 2.5, the “Intraoperative NPRS, median” value [2, 25] was 2.0 and the “Intraoperative NPRS, LS Mean Difference versus placebo” value ([2]; adjusted for site, carry forward) was −0.30. For the same compound, the “Intraoperative NPRS, LS Mean Difference versus placebo” value ([2]; carry forward, repeated measures model) was −0.32, the “Intraoperative NPRS, LS Mean Difference versus placebo” value ([2]; observed, repeated measures model) was −0.26 and the “Worst Pain During Surgery, Mean Difference versus placebo” value [3] was −0.33. The “Worst Pain During Surgery (NPRS), mean” value ([3]; Full Analysis Set) was 3.7, the “Worst Pain During Surgery (NPRS), median” value ([3]; Full Analysis Set) was 4.0 and the “Want Study Drug Again, mean” value [4, 26] was 7.6. For the same compound, the “Want Study Drug Again, median” value [4, 26] was 10.0, the “Want Study Drug Again, Mean Difference versus placebo” value ([4]; unpaired t-test) was −0.05 and the “Cataract operation complication, %” value ([5]; Either Eye) was “(0) %”. The “Conjunctivitis bacterial, %” value ([5]; Either Eye) was “(1.2) %”, the “Corneal abrasion, %” value ([5]; Either Eye) was “(0) %” and the “Corneal oedema, %” value ([5]; Either Eye) was “(1.2) %”. For the same compound, the “Endophthalmitis, %” value ([5]; Either Eye) was “(1.2) %”, the “Eye pain, %” value ([5]; Either Eye) was “(3.5) %” and the “Foreign body sensation in eyes, %” value ([5]; Either Eye) was “(0) %”. The “Intraocular pressure increased, %” value ([5]; Either Eye) was “(1.2) %”, the “Ocular hypertension, %” value ([5]; Either Eye) was “(1.2) %” and the “Pain, %” value ([5]; Either Eye) was “(0) %”. The “Paracentesis eye, %” value ([5]; Either Eye) was “(0) %”, the “Procedural pain, %” value ([5]; Either Eye) was “(0) %” and the “Subjects with Any Treatment-Emergent Ocular AEs, %” value ([5]; Either Eye) was “(8.2) %”. For the same compound, the “Vision blurred, %” value ([5]; Either Eye) was “(0) %”, the “Eye disorders, %” value ([5]; Either Eye) was “(5.9) %” and the “General disorders and administration site conditions, %” value ([5]; Either Eye) was “(0) %”. The “Infections and infestations, %” value ([5]; Either Eye) was “(2.4) %”, the “Injury, poisoning and procedural complications, %” value ([5]; Either Eye) was “(0) %” and the “Investigations, %” value ([5]; Either Eye) was “(1.2) %”. For the same compound, the “Conjunctivitis bacterial, %” value ([5]; Non-Study Eye) was “(1.2) %”, the “Eye pain, %” value ([5]; Non-Study Eye) was “(0) %” and the “Subjects with Any Treatment-Emergent Ocular AEs, %” value ([5]; Non-Study Eye) was “(1.2) %”. The “Vision blurred, %” value ([5]; Non-Study Eye) was “(0) %”, the “Eye disorders, %” value ([5]; Non-Study Eye) was “(0) %” and the “Infections and infestations, %” value ([5]; Non-Study Eye) was “(1.2) %”. The “Cataract operation complication, %” value ([5]; Study Eye) was “(0) %”, the “Corneal abrasion, %” value ([5]; Study Eye) was “(0) %” and the “Corneal oedema, %” value ([5]; Study Eye) was “(1.2) %”. The “Endophthalmitis, %” value ([5]; Study Eye) was “(1.2) %”, the “Eye pain, %” value ([5]; Study Eye) was “(3.5) %” and the “Foreign body sensation in eyes, %” value ([5]; Study Eye) was “(0) %”. For the same compound, the “Intraocular pressure increased, %” value ([5]; Study Eye) was “(1.2) %”, the “Ocular hypertension, %” value ([5]; Study Eye) was “(1.2) %” and the “Pain, %” value ([5]; Study Eye) was “(0) %”. The “Procedural pain, %” value ([5]; Study Eye) was “(0) %”, the “Subjects with Any Treatment-Emergent Ocular AEs, %” value ([5]; Study Eye) was “(7.1) %” and the “Eye disorders, %” value ([5]; Study Eye) was “(5.9) %”. For the same compound, the “General disorders and administration site conditions, %” value ([5]; Study Eye) was “(0) %”, the “Infections and infestations, %” value ([5]; Study Eye) was “(1.2) %” and the “Injury, poisoning and procedural complications, %” value ([5]; Study Eye) was “(0) %”. For the same compound, the “Investigations, %” value ([5]; Study Eye) was “(1.2) %”, the “Paracentesis eye, %” value ([5]; printed in the Non-Study Eye table) was “(0) %” and the “Subjects requiring rescue analgesic medication: No, %” value [6] was “(59.5) %”. The “Subjects requiring rescue analgesic medication: Yes, %” value [6] was “(40.5) %”, the “Subjects completing the surgery without interruption: No, %” value [7] was “(6.3) %” and the “Subjects completing the surgery without interruption: Yes, %” value [7] was “(93.7) %”. For the same compound, the “Subjects achieving analgesia response: Yes, %” value ([8]; NPRS <4 at four intraoperative timepoints) was 49.4%, the “Subjects achieving analgesia response: No, %” value [8] was 50.6% and the “Subjects completing the surgery: No, %” value [9] was 0 (0) %. The “Subjects completing the surgery: Yes, %” value [9] was 100.0%, the “Received Postoperative Opioid on Day 2: No, %” value ([10]; Day 2) was “(100.0) %” and the “Received Postoperative Opioid on Day 2: Yes, %” value ([10]; Day 2) was “(0.0) %”. The “Received Postoperative Opioid on Day 2-8: No, %” value ([10]; Day 2-8) was “(100.0) %”, the “Received Postoperative Opioid on Day 2-8: Yes, %” value ([10]; Day 2-8) was “(0.0) %” and the “Subjects requiring rescue sedative medication: No, %” value ([11]; Full Analysis Set) was “(63.3) %”. For the same compound, the “Subjects requiring rescue sedative medication: Yes, %” value ([11]; Full Analysis Set) was “(36.7) %”, the “Subjects requiring rescue sedative medication: Intraoperatively, %” value ([11]; Intraoperatively) was “(6.3) %” and the “Subjects requiring rescue sedative medication: Pre-operatively, %” value ([11]; Pre-operatively) was “(30.4) %”.
